Reference: patent publication US9066516B2, “Uses of thaxtomin and thaxtomin compositions as herbicides” (priority 2008, dated 2015)

Assays:
[1] = system: Common groundsel (Senecio vulgaris); assay: Pre-emergence test of MBI-005, field (Example 12); type: in vivo; details: pre-emergent; also: ranges in brackets are in %
Method: (§1) In field testing, field soil containing weed seeds were treated with 38.2 L MBI-005/ha at a spray volume of 280 L/ha using a CO2 sprayer with flat fan nozzles. Treatments, including water as the negative control and Gallery as the positive control, were replicated four times and applied twice at a four week interval. Treatments were evaluated visually as % cover and above-ground fresh weights per container were taken.

[2] = system: Shepherd's purse (Capsella bursa-pastora); assay: Pre-emergence test of MBI-005, field (Example 12); type: in vivo; details: pre-emergent; also: ranges in brackets are in %
Method: as §1

[3] = system: Flexuous bittercress (Cardamine flexuosa); assay: Pre-emergence test of MBI-005, field (Example 12); type: in vivo; details: pre-emergent; also: ranges in brackets are in %
Method: as §1

[4] = system: Hairy galinsoga (Galinsoga ciliata); assay: Pre-emergence test of MBI-005, field (Example 12); type: in vivo; details: pre-emergent; also: ranges in brackets are in %
Method: as §1

[5] = system: Dandelion (Taraxacum oficinale); assay: Pre-emergence test of MBI-005, field (Example 12); type: in vivo; details: pre-emergent; also: ranges in brackets are in %
Method: as §1

[6] = system: Bittercress (Cardamine hirsuta); assay: Pre-emergence test of MBI-005, field (Example 12); type: in vivo; details: pre-emergent; also: ranges in brackets are in %
Method: as §1

Eclipta (Eclipta alba) = assay: Pre-emergence test of MBI-005, field (Example 12); type: in vivo; details: pre-emergent; also: ranges in brackets are in %
Method: as §1

[7] = system: Common yellow oxalis (Oxalis stricta); assay: Pre-emergence test of MBI-005, field (Example 12); type: in vivo; details: pre-emergent; also: ranges in brackets are in %
Method: as §1

[8] = system: Marsh watercress (Rorippa islandica); assay: Pre-emergence test of MBI-005, field (Example 12); type: in vivo; details: pre-emergent; also: ranges in brackets are in %
Method: as §1

[9] = system: New Zealand moss (Sagina procumbens); assay: Pre-emergence test of MBI-005, field (Example 12); type: in vivo; details: pre-emergent; also: ranges in brackets are in %
Method: as §1

[10] = system: Velvetleaf (Abutilon theophrasti); assay: Pre-emergence test of MBI-005, field (Example 12); type: in vivo; details: pre-emergent; also: ranges in brackets are in %
Method: as §1

[11] = system: Henbit (Lamimum amplexicaule); assay: Pre-emergence test of MBI-005, field (Example 12); type: in vivo; details: pre-emergent; also: ranges in brackets are in %
Method: as §1

[12] = system: Chickweed (Stellaria media); assay: Pre-emergence test of MBI-005, field (Example 12); type: in vivo; details: pre-emergent; also: ranges in brackets are in %
Method: as §1

[13] = system: annual grasses and broadleaves, some perennials; assay: Pre-emergence spectrum of MBI-005, overall (Example 12); type: in vivo; details: some perennials (Table 12)
Method: To further describe the spectrum of pre-emergence activity, tests were conducted in laboratory and field conditions. In laboratory testing, 35 seeds were placed on a ring of blotter paper inside a 3 cm petri dish and supplied with 4 ml of MBI-005 (≦0.1 mg MBI-005/ml). Water was used as a negative control and oryzalin applied as a positive control. Petri dishes were randomly placed in a growth room at 25° C. and 50% RH. Treatments were replicated three times and germinated seeds were counted 7 and 14 days after application; water was added as necessary to maintain moisture levels inside each petri dish.
as §1

barnyard grass = assay: Greenhouse spray test bialaphos + MBI-005 (Example 10); type: in vivo
Method: The MBI-005 and bialaphos were prepared at various concentrations either as single ingredients or in combination with bialaphos. The treatments were applied at approximately ⅔ ml per replicate with a hand-help spray nozzle to barnyard grass or sedge. There were 3 replicates per treatment which were randomized after spray and were kept in a greenhouse at 25° C. for evaluation of phytotoxicity (% control).

ragweed = assay: Greenhouse synergy test MBI-005 + commercial herbicides (Example 11); type: in vivo; details: 14 days
Method: The test species barnyard grass, ragweed, sedge, and broad-leaf mustard were used for the valuation of synergy between MBI-005 and the rice herbicides clomazone, penoxsulam, cyhalofop, fenoxaprop-p-ethyl, bispyribac-sodium, thiobencarb, and propanil.
[…] other herbicides commonly used for field crops, glyphosate, glufosinate, synthetic version of bialaphos, and mesotrione were also tested for synergy with MBI-005 on crabgrass and ragweed.
There were 3 replicates per treatment which were sprayed with approximately ⅔ ml per replicate. The treatments were completely randomized and kept in a greenhouse at 25° C. The efficacy was rated at 7 and 14 days post treatment.

pigweed (Amaranthus sp.) = assay: Pot study, % control of pigweed (Example 2); type: in vivo; details: 1.0 mg/mL
Method: (§2) A pot study is conducted to test the phytotoxicity of thaxtomin A on corn (Zea mays var. Early Sunglow) and wheat (Triticum aestivum var. PR1404). To confirm the activity on broadleaf weeds, pigweed (Amaranthus sp.) is planted in the same pot with either three corn or five wheat seeds, and sprayed simultaneously with the cereal test plants. The less than 3-inch tall plants grown under growth lights (12-h light/12-h dark) at 28° C. are sprayed with thaxtomin A solutions derived from a liquid culture of S. acidiscabies containing 0.5, and 1.0 mg thaxtomin A per mL of solvent (4% ethanol and 0.2% non-ionic surfactant). A solution of 4% ethanol +0.2% non-ionic surfactant without thaxtomin A is used as a control treatment. Each treatment is conducted in three replicates. Treated plants are kept at 28° C. under growth lights and observed at three time points—7, 14 and 21 days after treatment—for visual symptoms of phytotoxicity on corn and wheat and % control of pigweed.

[14] = in vivo; cited from earlier work
grass species = assay: Greenhouse test on grass species (Example 4); type: in vivo; details: 0.5 or 1.0 mg/mL thaxtomin A
Method: A strain of S. acidiscabies (ATCC-49003) is grown in oat bran broth for 5 days (25° C., 200 rpm). The whole cell broth with thaxtomin A is extracted using XAD resin. The dried crude extract was resuspended in 4% ethanol and 0.02% non-ionic surfactant at a concentration of 10 mg/mL, and the solutions with two different concentrations of thaxtomin A (0.5 and 1.0 mg/mL) are tested the following broadleaf weed species:
and on the following grass weed species:
All plant species are tested in 4″×4″ plastic pots in three replicates. The untreated control plants are sprayed with the carrier solution (4% Ethanol, 0.02% glycosperse) and the positive control plants with Roundup at a rate corresponding to 1 fl. oz/acre. Treated plants are kept in a greenhouse under 12 h light/12 h dark conditions.

[15] = system: wheat (Triticum aestivum var. PR1404); assay: Pot study, phytotoxicity on wheat (Example 2); type: in vivo; details: 0.5 and 1.0 mg/mL, 7, 14 and 21 days after treatment
Method: as §2

[16] = system: Bindweed (Convolvulus arvensis); assay: Post-emergence test of MBI-005, lab (Example 13); type: in vivo
Method: To further describe the spectrum of post-emergence activity, tests were conducted in laboratory and field conditions. For laboratory testing, 3-10 plants (depending on the species) at the 1-2 leaf stage plants in 2.5 cm square pots containing Sunshine Mix No. 2 planting media were sprayed at 1 mg MBI-005/mL at a rate of 40 gal/A using a cabinet track sprayer. Negative controls were sprayed with water and positive controls with glufosinate. Pots were randomly placed in a growth room at 25° C. and 50% RH, and watered as necessary. Treatments were replicated five times and evaluated at 7 and 14 days for visual % damage, with 0% indicating no damage and 100% indicating plant death.

CN1C(=O)[C@](O)(Cc2cccc(O)c2)N(C)C(=O)[C@@H]1Cc1c[nH]c2cccc([N+](=O)[O-])c12 [thaxtomin A]
Rating at 0.1 mg/ml (Reduction of Germination) [1]: ++++ (95-100) | Rating at 0.1 mg/ml (Reduction of Germination) [2]: ++++ (95-100) | Rating at 0.1 mg/ml (Reduction of Germination) [3]: ++ (60-84) | Rating at 0.1 mg/ml (Reduction of Germination) [4]: +++ (85-94) | Rating at 0.1 mg/ml (Reduction of Germination) [5]: ++++ (95-100) | Rating at 0.1 mg/ml (Reduction of Germination) [6]: +++ (85-94) | Rating at 0.1 mg/ml (Reduction of Germination) (Eclipta (Eclipta alba)): ++ (60-84) | Rating at 0.1 mg/ml (Reduction of Germination) [7]: ++++ (95-100) | Rating at 0.1 mg/ml (Reduction of Germination) [8]: ++++ (95-100) | Rating at 0.1 mg/ml (Reduction of Germination) [9]: ++++ (95-100) | Rating at 0.1 mg/ml (Reduction of Germination) [10]: ++ (60-84) | Rating at 0.1 mg/ml (Reduction of Germination) [11]: +++ (85-94) | Rating at 0.1 mg/ml (Reduction of Germination) [12]: ++++ (95-100) | pre-emergence spectrum of activity [13]: broad spectrum activity | % Control (14 days) (barnyard grass; Table 6, MBI-005 0.25 mg/L): 1.3 ab % | % Control (14 days) (barnyard grass; Table 7, MBI-005 0.25 mg/mL): 6.7 bc % | % Control (7 days) (barnyard grass; Table 8, MBI-005 0.38 mg/mL): 6.7 ab % | % Control (14 days) (barnyard grass; Table 8, MBI-005 0.38 mg/mL): 21.7 b % | % Control MBI-005 (ragweed; MBI-005 0.125 mg/mL (bispyribac-sodium line)): 23.3% | % Control MBI-005 (ragweed; MBI-005 0.125 mg/mL (glufosinate line)): 37.5% | % Control MBI-005 (ragweed; MBI-005 0.125 mg/mL (glyphosate line)): 6.7% | control of pigweed (pigweed (Amaranthus sp.)): complete control | activity as pre and post emergent, non-systemic herbicides [14]: marked activity | adverse effects on grass species (grass species): no adverse effects are observed | symptoms of phytotoxicity [15]: no symptoms of phytotoxicity are observed | Rating at 1 mg/ml (Post-Emergence % control) [16]: + (0-50)
